From patent publication US20070149481A1, “N,n-bridged, nitrogen-substituted carbacyclic indolocarbazoles as protein kinase inhibitors” (priority 2002, published 2007) come the findings set out here.

Where “and” joins values, the source holds several entries; their conditions need not be identical. Equal values may be shown once.

Data set [1] in a line: Solubility of free base NAD0241 and its hydrochloride salt in 99/1 water/DMSO. The class given is physicochemical. As to conditions: 18 hours equilibration at room temperature, duplicate experiments. How it is done: Stock solutions of NAD0241 (100 mM) and of its hydrochloride salt ([…]) in DMSO (UV-grade) were prepared freshly before the experiment and further diluted to a final concentration of 10 mM. These stock solutions in 100% DMSO were diluted with water (UV grade) to provide five 99/1 water/DMSO samples with varying concentrations of the compound (1000, 500, 100, 50 and 10 μM).
Each sample was thoroughly mixed by rigorous vortexing (30 seconds) followed by equilibration for 18 hours at room temperature. A […] for each sample was transferred into 1.5 mL polypropylene tubes and centrifuged for 30 minutes at room temperature at 16000 g in a fixed angle tabletop centrifuge (Heraeus Biofuge pico equipped with #3325 rotor). The supernatant was pipetted into a quartz glass cuvette and UV-absorption (322 nm) was measured in a UV spectrophotometer (Varian Cary 50). Each experiment was run in duplicate.

The target in another data set is His tagged ERK2 (Homo sapiens, UniProt P28482). The experiment in a line: Extracellular signal Regulated Kinase 2 inhibition assay (ERK2), radioactive filtermat format. The class given is biochemical. As to conditions: 10 μM compound. The protocol: (§1) The ERK2 kinase activity assay utilizes a radioactivity-based format in a 96-well PCR plate with radioactive readout. The ERK2 activity was assayed in a 25 μL assay mixture containing 25 mM HEPES (pH 7.0), 250 μM ATP, 1 mM MgCl2, 1 mM DTT, 2% DMSO, 150 ng/mL Myelin Basic Protein (MBP, Sigma M-1891), and 13.6 ng/mL His tagged ERK2 (specific activity=38.1 nmol/min*mg). Compounds were screened for inhibition of the ERK2 kinase activity at a concentration of 10 μM. The kinase reaction was allowed to proceed at 37° C. for 30 minutes, then reaction was stopped by the addition of 5 μl of 0.5M EDTA (pH 8). 15 μL of each solution were then spotted onto the corresponding square of a filtermat (8×12 glassfibre mat 90×120 mm, PE-Wallac 1450-421). The filtermat was allowed to dry and washed once with 10% TCA, 2% PPA, 500 mM NaCl each for 30 minutes at rt. Two further washings in 10% TCA and 2% PPA for 30 minutes were performed, then a final 30 minute wash in 99% EtOH at rt was done and the filtermat was air dried. The dry filtermat was then placed in a sample bag with a Meltilex sheet (Melt-on scintillator sheets 73×109 mm, PE-Wallac 1450-441 for filtermat A) over the filtermat. The bag was trimmed to fit into the microplate heatsealer (PE-Wallac 1495-021). The heatsealer is used to melt the Meltilex on the filtermat. The bag containing the filtermat and the melted Meltilex was then placed into a filter cassette and counted using the Microbeta Jet Scintillation and Luminescence Counter PE-Wallac 1450.
Sequence of His tagged ERK2 (P28482 whole entry): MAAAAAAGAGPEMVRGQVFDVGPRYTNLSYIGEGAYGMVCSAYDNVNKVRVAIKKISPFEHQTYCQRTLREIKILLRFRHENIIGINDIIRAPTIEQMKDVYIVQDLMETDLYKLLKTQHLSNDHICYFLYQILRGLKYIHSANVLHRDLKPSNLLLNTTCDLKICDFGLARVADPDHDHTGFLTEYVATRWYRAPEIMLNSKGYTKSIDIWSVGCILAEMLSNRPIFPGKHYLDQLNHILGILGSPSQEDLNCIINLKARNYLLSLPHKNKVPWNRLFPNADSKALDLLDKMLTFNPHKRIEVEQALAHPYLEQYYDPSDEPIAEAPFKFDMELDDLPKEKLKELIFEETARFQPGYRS

Data set [2] has as its target T1, PKA (catalytic subunit, bovine heart) (Bos taurus, UniProt P00517).
T1 construct: PKA (catalytic subunit, bovine heart, Calbiochem 539486); purchased Calbiochem 539486; host or cells: bovine heart (tissue-derived)
The experiment in a line: Protein Kinase A inhibition assay (PKA). It is filed as biochemical. As to conditions: 10 μM compound. The protocol: as §1
The PKA kinase activity assay utilizes a radioactivity-based format in a 96-well PCR plate with radioactive readout. The PKA activity was assayed in a 25 μL assay mixture containing 25 mM HEPES (pH 7.0), 250 μM ATP, 10 mM MgCl2, 1 mM DTT, 1 mM EDTA (pH 8). 2% DMSO. 250 ng/mL Histone H2B (Roche 223 514), and 2 ng/mL PKA (catalytic subunit, bovine heart, Calbiochem 539486, specific activity=1170 pmol/min*μg). Compounds were screened for inhibition of the PKA kinase activity at a concentration of 10 μM. The kinase reaction was allowed to proceed at 37° C. for 30 minutes, then the reaction was stopped by addition of 5 μL of 0.5M EDTA (pH 8). The remainder of the protocol is identical to the one reported for ERK2.

A further data set has as its system PKC (rat brain). The experiment in a line: Protein Kinase C inhibition assay (PKC). As to conditions: 10 μM compound. The class given is biochemical. The protocol:
as §1
The PKC kinase activity assay utilizes a radioactivity-based format in a 96-well PCR plate with radioactive readout. The PKC activity was assayed in a 25 μL assay mixture containing 25 mM HEPES (pH 7.0), 250 μM ATP, 10 mM MgCl2, 1 mM DTT, 1 mM EDTA (pH 8), 2 mM CaCl2, 2% DMSO, 250 ng/mL Histone H1 (Roche 1 004 875), and 165 ng/mL PKC (rat brain, Calbiochem 539494, specific activity=1600 nmol/min*mg). Compounds were screened for inhibition of the PKC kinase activity at a concentration of 10 μM. The kinase reaction was allowed to proceed at 37° C. for 30 minutes, then the reaction was stopped by addition of 5 μL of 0.5M EDTA (pH 8). The remainder of the protocol is identical to the one reported for ERK2.

The target of a further data set is T2, GSK3β (Homo sapiens, UniProt P49841).
T2 construct: purchased Upstate Discovery
T2 sequence (P49841 whole entry, species assumed): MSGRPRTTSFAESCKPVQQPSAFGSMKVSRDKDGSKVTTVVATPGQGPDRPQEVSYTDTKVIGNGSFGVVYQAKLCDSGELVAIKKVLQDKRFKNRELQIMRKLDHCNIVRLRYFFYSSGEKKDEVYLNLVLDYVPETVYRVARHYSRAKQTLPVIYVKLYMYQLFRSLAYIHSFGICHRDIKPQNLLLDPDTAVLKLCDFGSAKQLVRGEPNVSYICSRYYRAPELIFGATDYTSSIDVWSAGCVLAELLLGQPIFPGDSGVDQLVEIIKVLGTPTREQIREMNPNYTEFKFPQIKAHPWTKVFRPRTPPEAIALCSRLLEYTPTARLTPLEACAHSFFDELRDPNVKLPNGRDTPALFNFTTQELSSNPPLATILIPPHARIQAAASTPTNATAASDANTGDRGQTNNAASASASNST
Briefly: Glycogen Synthase Kinase 3β inhibition assay (GSK3β). As to conditions: 10 μM compound. It is filed as biochemical. The protocol:
The GSK3β kinase activity assay utilizes a radioactivity-based format in a 96-well PCR plate with radioactive readout. The GSK3 β activity was assayed in a 25 μL assay mixture containing 8 mM HEPES (pH 7.0), 250 μM ATP, 0.2 mM EDTA (pH 8), 2% DMSO, 250 ng/mL Myelin Basic Protein (MBP, Sigma M-1891), and 12 ng/mL GSK3β (Upstate Discovery, specific activity=607 nmol/min*GS2 peptide, concentration of 6.05 mg/mL). Compounds were screened for inhibition of the GSK3β kinase activity at a concentration of 10 μM. The kinase reaction was allowed to proceed at 37° C. for 30 minutes, then the reaction was stopped by addition of 5 μL of 0.5M EDTA (pH 8).

`Cl.NC(=O)C1(N)CC2CC1n1c3ccccc3c3c4c(c5c6ccccc6n2c5c31)C(=O)NC4=O` (stereo not shown) [NAD0241-hydrochloride salt]: the “solubility limit in water containing 1% DMSO” value in data set [1] is 170 mgL^−1 and 214 mgL^−1.
Regarding `COc1ccc(CN2C(=O)c3c(c4c5ccccc5n5c4c4c3c3ccccc3n4C3CC5[C@](N)(C#N)C3)C2=O)cc1` (stereo partly shown) [Compound 28], the inhibition at 10 µM on His tagged ERK2 is 48.7%; in data set [2], below 10%; against GSK3β it was 25.6%. The “% Inhibition PKC” value in the data set with PKC (rat brain) worked out at 28.19%.
For the molecule `COc1ccc(CN2C(=O)c3c(c4c5ccccc5n5c4c4c3c3ccccc3n4C3CC5C(N)(C(=O)O)C3)C2=O)cc1` (stereo not shown) [Compound 36], the “% Inhibition ERK2” value on His tagged ERK2 came out at 73.44%. The “% Inhibition PKA” value in data set [2] amounted to 21.80%. The “% Inhibition PKC” value with PKC (rat brain) turned out to be 65.10%. In addition, on GSK3β, the “% Inhibition GSK3β” value came to 82.71%.
As for `CCOC(=O)[C@]1(N)CC2CC1n1c3ccccc3c3c4c(c5c6ccccc6n2c5c31)C(=O)N(Cc1ccc(OC)cc1)C4=O` (stereo partly shown) [Compound 35], the inhibition at 10 µM is 63.8% at His tagged ERK2, below 10% in data set [2] and below 10% against GSK3β. Moreover, the “% Inhibition PKC” value in the data set on PKC (rat brain) stood at 28.47%.
On to `[N-]=[N+]=NC1C2CC([C@H]1O)n1c3ccccc3c3c4c(c5c6ccccc6n2c5c31)C(=O)NC4=O` (mixture of isomers) [Compound 15], for which the inhibition at 10 µM at His tagged ERK2 turned out to be 94.6%; in data set [2], 79.8%; against GSK3β it was 96.9%. In addition, the “% Inhibition PKC” value in the data set on PKC (rat brain) turned out to be 88.68%.
For the molecule `O=C1NC(=O)c2c1c1c3ccccc3n3c1c1c2c2ccccc2n1C1CC3C[C@@H]1N1CCOCC1` (mixture of isomers) [Compound 3], the values for the inhibition at 10 µM (on His tagged ERK2; in data set [2]; on GSK3β) were 39.9%, 26.1% and 19.3%, respectively. Besides, the “% Inhibition PKC” value with PKC (rat brain) is 75.80%.
`N[C@@]1(C(=O)NCCO)CC2CC1n1c3ccccc3c3c4c(c5c6ccccc6n2c5c31)C(=O)NC4=O` (mixture of isomers) [Compound 11]: the inhibition at 10 µM on His tagged ERK2 was found to be 93.6%; in data set [2], 90.5%; at GSK3β, 99.2%. Moreover, the “% Inhibition PKC” value in the data set on PKC (rat brain) stood at 95.94%.
Take `COc1ccc(CN2C(=O)c3c(c4c5ccccc5n5c4c4c3c3ccccc3n4C3CC5[C@@H](N)C3)C2=O)cc1` (mixture of isomers) [Compound 1]: the inhibition at 10 µM is 30.9% on His tagged ERK2, 17.6% in data set [2] and below 10% at GSK3β. Also, the “% Inhibition PKC” value in the data set with PKC (rat brain) is on record as 49.73%.
As for `NC(=O)[C@]1(N)C[C@@H]2CC1n1c3ccc(O)cc3c3c4c(c5c6cc(O)ccc6n2c5c31)C(=O)NC4=O` (mixture of isomers) [Compound 12], the results for the inhibition at 10 µM (at His tagged ERK2; in data set [2]; at GSK3β) were 98.1%, 99.9% and 100%, respectively. In the data set with PKC (rat brain), the “% Inhibition PKC” value was determined as 96.63%.
Consider `COc1ccc(CN2C(=O)c3c(c4c5ccccc5n5c4c4c3c3ccccc3n4C3CC(NCCO)C5C3)C2=O)cc1` (stereo not shown) [Compound 25], for which, on His tagged ERK2, the “% Inhibition ERK2” value is recorded as 33.51%. The “% Inhibition PKA” value in data set [2] is listed as “NA (NA = <10% inhibition)”. Further, the “% Inhibition PKC” value with PKC (rat brain) worked out at 15.94%. Also, the “% Inhibition GSK3β” value at GSK3β is “NA (NA = <10% inhibition)”.
